Laboratory results published in the supplement of paper PMC10307832.

Legend:
Assay in all cases: relative viability (nuclei count vs DMSO), 5 days (fraction); higher = more cells survive
Vorinostat + Navitoclax = compound: O=C(CCCCCCC(=O)Nc1ccccc1)NO [Vorinostat] + CC1(C)CCC(c2ccc(Cl)cc2)=C(CN2CCN(c3ccc(C(=O)NS(=O)(=O)c4ccc(N[C@H](CCN5CCOCC5)CSc5ccccc5)c(S(=O)(=O)C(F)(F)F)c4)cc3)CC2)C1 [Navitoclax] (partner 0.5 µM)
Method in brief: (§1)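 Lung cancer cell lines in 1536-well plates were dosed by pin tool the day after seeding, either with one drug alone or with a fixed anchor-drug dose plus five library-drug doses (not always all listed) in √10 steps. After 5 days, cells were fixed and their nuclei stained in one step (final 0.05% Triton X-100, 1% formaldehyde, 1 ug/ml Hoechst), then counted on 4× images. Relative viability is the nuclei count in treated wells divided by that in vehicle wells. Values are medians of duplicate plates.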

Vorinostat + Lapatinib = compound: O=C(CCCCCCC(=O)Nc1ccccc1)NO [Vorinostat] + CS(=O)(=O)CCNCc1ccc(-c2ccc3ncnc(Nc4ccc(OCc5cccc(F)c5)c(Cl)c4)c3c2)o1 [Lapatinib] (partner 2 µM)
Method in brief: as §1

Vorinostat + Linsitinib = compound: O=C(CCCCCCC(=O)Nc1ccccc1)NO [Vorinostat] + C[C@]1(O)C[C@@H](c2nc(-c3ccc4ccc(-c5ccccc5)nc4c3)c3c(N)nccn32)C1 [Linsitinib] (partner 1 µM)
Method in brief: as §1

Vorinostat + Decitabine = compound: O=C(CCCCCCC(=O)Nc1ccccc1)NO [Vorinostat] + Nc1ncn([C@H]2C[C@H](O)[C@@H](CO)O2)c(=O)n1 [Decitabine] (partner 2 µM)
Method in brief: as §1

Cell Line	relative viability (Vorinostat + Navitoclax; first compound 0.253 µM)	relative viability (Vorinostat + Navitoclax; first compound 0.8 µM)	relative viability (Vorinostat + Navitoclax; first compound 2.53 µM)	relative viability (Vorinostat + Navitoclax; first compound 8 µM)	relative viability (Vorinostat + Lapatinib; first compound 0.253 µM)	relative viability (Vorinostat + Lapatinib; first compound 0.8 µM)	relative viability (Vorinostat + Lapatinib; first compound 2.53 µM)	relative viability (Vorinostat + Lapatinib; first compound 8 µM)	relative viability (Vorinostat + Linsitinib; first compound 0.253 µM)	relative viability (Vorinostat + Linsitinib; first compound 0.8 µM)	relative viability (Vorinostat + Linsitinib; first compound 2.53 µM)	relative viability (Vorinostat + Linsitinib; first compound 8 µM)	relative viability (Vorinostat + Decitabine; first compound 0.253 µM)	relative viability (Vorinostat + Decitabine; first compound 0.8 µM)	relative viability (Vorinostat + Decitabine; first compound 2.53 µM)	relative viability (Vorinostat + Decitabine; first compound 8 µM)
HCC-827	1.04	1.03	0.818	0.195	0.219	0.204	0.155	0.161	1.01	1.04	0.837	0.21	0.344	0.343	0.274	0.213
HCC-78	0.711	0.324	0.15	0.116	0.705	0.455	0.249	0.155	0.547	0.238	0.135	0.107	0.672	0.634	0.355	0.236
201T	1.24	1.25	1.2	0.472	1.05	0.954	0.929	0.567	1.04	0.932	0.825	0.363	0.845	0.874	0.679	0.266
LK-2	0.939	0.585	0.169	0.0764	1.19	0.673	0.209	0.108	0.58	0.328	0.143	0.0894	0.267	0.201	0.089	0.064
NCI-H2342													0.58	0.715	0.529	0.391
HCC-366	1.03	0.9	0.135	0.0208	1.16	0.741	0.0772	0.0322	0.637	0.545	0.0527	0.0206	0.383	0.244	0.0518	0.0306
HARA	1.17	1.16	0.606	0.086	0.849	0.682	0.237	0.112	1.13	0.948	0.254	0.101	0.468	0.367	0.194	0.0814
COR-L 105	0.741	0.58	0.257	0.234	0.425	0.287	0.252	0.249	1.1	1.16	0.394	0.222	0.588	0.679	0.362	0.256
NCI-H460	1.26	0.913	0.0765	0.0108	1.35	0.742	0.0269	0.0111	0.902	0.544	0.0315	0.0069	0.526	0.377	0.0496	0.0202
NCI-H1563					1.01	0.796	0.403	0.564	1.19	1.03	0.749	0.525				
NCI-H1650	1.12	0.851	0.385	0.144	0.803	0.484	0.287	0.118					0.351	0.359	0.27	0.135
NCI-H522													0.632	0.657	0.531	0.259
NCI-H441	0.464	0.536	0.164	0.184					0.501	0.619	0.255	0.117	0.223	0.199	0.168	0.104
NCI-H2228	0.953	0.809	0.473	0.132	1.34	0.519	0.261	0.122	0.805	0.542	0.425	0.0918				
ABC-1					1.14	1.12	1.13	0.27	1	0.505	0.331	0.106	1.33	0.896	0.421	0.158
NCI-H661					0.549	0.682	0.275	0.161	0.759	0.752	0.298	0.184	0.575	0.468	0.335	0.316
NCI-H358					0.642	0.566	0.276	0.199	0.969	0.83	0.219	0.156	0.202	0.196	0.105	0.091
LCLC-103H									1.18	0.999	0.597	0.172	0.715	0.766	0.329	0.363
NCI-H1703	1.46	1.47	0.888	0.161	1.64	1.49	1.02	0.247	1.14	0.846	0.953	0.206				
NCI-H650					1.15	0.489	0.196	0.177	1.13	0.52	0.205	0.152	0.332	0.312	0.208	0.104
NCI-H2170	0.706	0.481	0.216	0.172	0.283	0.273	0.238	0.198					0.415	0.407	0.321	0.129
ChaGo-K-1	1.01	0.92	0.582	0.276									0.508	0.516	0.389	0.202
IA-LM	0.791	0.597	0.235	0.0188	0.765	0.636	0.247	0.073	0.685	0.271	0.212	0.0566				
CAL-12T	1.16	1.14	0.56	0.101	0.682	0.649	0.438	0.111	0.923	0.759	0.563	0.147				
